Entries after “also recorded” stand apart in the source; their conditions may differ.
Experiments:
[1] = tested on: abdominal aorta sections of bypass and sham operated rats; test: Elastic recoil of aorta sections from bypass- and sham-operated rats given AKG; type: in vivo, Sprague Dawley rats
Method: A dissected portion of the abdominal aorta, prior to the right- and left common iliac arteries, was carefully cleaned to remove adhering tissues.
Force was measured using a FTO3 force displacement transducer (Grass Instrument, West Warwick, R.I.) connected to a home-built bridge amplifier which was interfaced with a 8S PowerLab A/D Converter (ADInstruments, Chalgrove, Oxfordshire, UK).
The recorded signal was adjusted to zero for un-tensioned aorta sections with the aid of an offset dial mounted on the pre-amplifier unit. Each aorta section was then exposed to approx. 5 step-wise increases in tension (each step being approx. 0.09 N), until a final maximal tension of 0.49 N (measured using the FT03 Grass Force transducer) was achieved. […] Aorta sections were subsequently removed and weighed.
(§1) LaPlace's equation assumes the tension (T) in the wall of a hollow cylinder is directly proportional to the cylinders radius (r) and the pressure (p) across the wall, caused by the flow inside the cylinder, such that T=p×r. If one assumes that the tension in the wall of the aorta sections is equivalent to that recorded by the force transducer as the result of a manual stretch, then the pressure that would have given rise to such an increase in tension can be calculated using LaPlace's equation and the measured radius of each aorta section.
Data are presented as mean±SE.

[2] = tested on: abdominal aorta sections of elderly mice; details: for elasticity of aorta sections (elastic recoil), first series of stretches: control 3.3×10^−5; for decrease in elastic recoil, second versus first series: repeated stretching protocol, control approximately 90%
Method: This time, experimental subjects that were in need of increased artery elasticity for a more general reason, namely advanced age, were studied.
Female NMRI mice, aged 50 weeks at the start of the trial, were housed at the animal facilities of the Department of Cell & Organism Biology, Lund University, Sweden. The animals were raised under the same conditions with a 12/12 hour light-dark cycle. Mice were fed rodent pellets ad libitum (Altromin no. 1314 Spezialfutterwerke, Lage, Germany) and given free access to drinking water. […] Mice allocated to Group 3 were only fed rodent pellets and were considered to be the Control group (n=6). The level of AKG fed as a supplement to the diet represented 2% of the voluntary feed intake of the mice, which was approx. 10-15% of body weight per day.
The mice were anaesthetized by exposure to 95% CO2 and killed by cervical dislocation. A dissected portion of the abdominal aorta, prior to the right- and left common iliac arteries, was carefully cleaned to remove adhering tissues. The aorta was cut into approx. 4.5 mm pieces with a diameter at rest of approx. 1 mm, and each piece was then securely attached at one end to a force transducer and at the other to a metal pin on a mounting block, as described in part (Harrison et al. Reprod Fertil Dev. 1997; 9(7):731-40, Harrison and Flatman Am J Physiol. 1999 December; 277(6 Pt 2):R1646-53).
Aorta sections were immersed into oxygenated and thermostatically controlled chambers (37° C.), having an internal depth and diameter of 5.5 and 3.2 cm, respectively, and holding 44 ml of phosphate buffered saline (0.15 M PBS, pH 7.4) comprising in mM; NaCl 136.91, KCl 2.68, Na2HPO4 8.08 and NaH2PO4 1.66. Force was measured using a FTO3 force displacement transducer (Grass Instrument, West Warwick, R.I.) connected to a home-built bridge amplifier which was interfaced with a 8S PowerLab A/D Converter (ADInstruments, Chalgrove, Oxfordshire, UK). […] The PowerLab 8S A/D converter was connected to an iBook G4 running Chart v.5.4 Software (AD Instruments, Australia). The data recording was at a sampling speed of 40.000 data samples per second (40 KHz) and the input impedance of the amplifier was 200 MΩ differential
Aorta sections were suspended vertically, and in duplicate. The recorded signal was adjusted to zero for un-tensioned aorta sections with the aid of an offset dial mounted on the pre-amplifier unit. Each aorta section was then exposed to approx. 5 step-wise increases in tension (each step being approx. 0.09 N), until a final maximal tension of 0.49 N (measured using the FT03 Grass Force transducer) was achieved. […] The aorta sections were then allowed to relax totally before being exposed to repeat step-wise increases in tension a further two more times, in close succession. Aorta sections were subsequently removed and weighed.
This fall in the recording trace was measured over time using the Average Slope calculation available as part of Chart v.5.4 Software (AD Instruments, Australia).
as §1

[3] = tested on: excised aorta sections of elderly mice; test: Robustness of aorta sections to stretch (successful stretches without rupture); type: in vivo, NMRI mice; details: for number of successful stretches without rupture, First Replicate / number of successful stretches without rupture, Second Replicate: 0.49 N max. tension stepwise, control 4 out of 6; for successful stretches without rupture, Mean (%): mean of two replicates, control 66.7
Method: Female NMRI mice, aged 50 weeks at the start of the trial, were housed at the animal facilities of the Department of Cell & Organism Biology, Lund University, Sweden. The animals were raised under the same conditions with a 12/12 hour light-dark cycle. Mice were fed rodent pellets ad libitum (Altromin no. 1314 Spezialfutterwerke, Lage, Germany) and given free access to drinking water. […] Mice in Group 1 were fed rodent pellets plus (2% w/v) Na2−AKG 2H2O (n=6), whilst mice in Group 2 were fed rodent pellets plus (2% w/v) Ca−AKG H2O (n=6). Mice allocated to Group 3 were only fed rodent pellets and were considered to be the Control group (n=6). The level of AKG fed as a supplement to the diet represented 2% of the voluntary feed intake of the mice, which was approx. 10-15% of body weight per day.
Aorta sections were suspended vertically, and in duplicate. The recorded signal was adjusted to zero for un-tensioned aorta sections with the aid of an offset dial mounted on the pre-amplifier unit. Each aorta section was then exposed to approx. 5 step-wise increases in tension (each step being approx. 0.09 N), until a final maximal tension of 0.49 N (measured using the FT03 Grass Force transducer) was achieved. This final level of tension was by no means close to the physiological maximum force recorded in aorta sections. The aorta sections were then allowed to relax totally before being exposed to repeat step-wise increases in tension a further two more times, in close succession. Aorta sections were subsequently removed and weighed.
In all the arteries studied, the initial stretch series (e.g. application of tension followed by relaxation) led to a decrease in elasticity with subsequent applications of tension. This effect may be compared to the sort of damage that would be expected to arise with a sudden increase in blood pressure (see FIG. 5).

[4] = elderly mice fed 2% w/v in pellets for 182 days, n=6, mean±SE

Structure (SMILES) | effect of AKG-intake on arterial elasticity in bypass-operated rats ([1]; B+AKG versus B−AKG, P=0.047) | effect of AKG-intake on aorta elasticity in sham-operated control rats ([1]; S+AKG versus S−AKG, P=0.44) | elasticity of aorta sections (elastic recoil), first series of stretches [2, 4] | elasticity of aorta sections (elastic recoil), second series of stretches ([2]; elderly mice fed 2% w/v in pellets for 182 days, n=6, mean±SE, control 3.4×10^−6) | decrease in elastic recoil, second versus first series [2] | number of successful stretches without rupture, First Replicate [3] | number of successful stretches without rupture, Second Replicate [3] | successful stretches without rupture, Mean (%) [3] | uptake after enteral administration | effect compared to Na−AKG group ([2]; elderly mice, arterial elasticity) | effect on arterial elasticity compared with the control mice ([2]; elderly mice, first stretch series (FIG. 4))
O=C(O)CCC(=O)C(=O)O [AKG, alpha-ketoglutaric acid] | significant effect; also recorded: positive effect | no effect | – | – | – | – | – | – | – | – | –
O=C([O-])CCC(=O)C(=O)[O-].[Na+].[Na+] [Na−AKG, sodium alpha-ketoglutarate] | – | – | 4.3×10^−5±1.6×10^−6 N ms^−1 mg^−1 wet wt | 3.7×10^−6±1.1×10^−6 N ms^−1 mg^−1 wet wt | 91% | 4 out of 6 | 5 out of 6 | 75.0% | faster uptake after enteral administration with higher peak blood levels | – | –
O=C([O-])CCC(=O)C(=O)[O-].[Ca+2] [Ca−AKG, calcium alpha-ketoglutarate] | – | – | 6.4×10^−5±2.7×10^−6 N ms^−1 mg^−1 wet wt | – | 94% | 4 out of 6 | 5 out of 6 | 75.0% | – | better effects | significant effect

— patent publication US20110039935A1, “USE OF PHARMACOLOGICALLY ACTIVE CHEMICAL COMPOUNDS” (ENTRESS AB, priority 2007, published 2011)
